Measurements reported in article PMC5848165 (Toxins, 2018).

Experiments:
[1] = test system: formalin-induced paw licking response in mice; experiment: Formalin-induced paw licking; type: in vivo, mouse (Kunming); settings: 5 mg/kg i.p., n = 6
Method: Since Nav1.7 plays an important role in pain, the analgesic effects of JZTX-34 were examined in three animal models (formalin-induced paw licking, acetic acid-induced writhing, and hot plate). Intraplantar injection of formalin causes pain and can be divided into two phases. The early phase was neurogenic pain and usually occurred within […]), and the late phase was inflammatory pain lasting from 15 to 30 min).
(§1) Figure 6 Effects of JZTX-34 on pain. (A) Effects of JZTX-34 on the early phase (0–5 min) and late phase (15–30 min) of formalin-induced paw licking response in mice. (B) Effects of JZTX-34 on the acetic acid-induced writhing response in mice. (C)Effects of JZTX-34 on the hot plate test in mice.
(§2) The synthesized JZTX-34 was obtained according to the procedure as previously described. […] Rats (Sprague-Dawley) and Kunming mice were maintained in the Laboratory of Protein Chemistry of Hunan Normal University. All of the experimental involving animals were approved by the Animal Care and Use Committee of Hunan Normal University (2016-273, 13 October 2016).
Formalin test was performed according to the method described previously. […] After test samples were intraperitoneally (i.p.) injected, 5% formalin (20 μL) was injected to the plantar surface of right hind paw. The time spent licking the injected paw was counted every 5 min. Phase I was defined as 0–10 min, and Phase II defined as […].
(§3) Data from Axon 700B patch clamp were analyzed by Clampfit10.0 (Molecular Devices, Sunnyvale, CA, USA). Dose-response curves were fitted by the Hill logistic equation: y = 1 − (1 − fmax)/[…]. In this equation, n stands an empirical Hill coefficient and fmax is the fraction of current resistant to inhibition at high toxin (Tx) concentration. The G-V curves were obtained by calculating the conductance (G) at each voltage (V) using the equation G = I/(V1 − Vrev), with Vrev being the reversal potential determined for each cell individually. G-V curves were fitted using a Boltzmann equation—y = 1/(1 + exp[(Va − V)/κ])—in which Va, V, and κ represent midpoint voltage of kinetics, test potential, and slope factor, respectively. […] Statistical significance was calculated using Student’s t-test and was defined as p < 0.05.

hot plate test in mice = experiment: Hot plate test; type: in vivo, mouse (Kunming); settings: 5 mg/kg i.p., baseline about 10 s, n = 6
Method: as §1
Mice with a latency time about 10 s were selected for the hot plate test. […] After administration of test samples, the latency time was recorded at the time points of 30 min, 60 min, 120 min, and 180 min (Figure 6C). Negative control animals received the same volume of vehicle.
as §2
Mice were put on a hot plate apparatus (model HZ66-ZH-YLS-6B, Shanghai, China) in order to test response time to a thermal stimulus. The responses time of mice at about 10 s was selected for the test. […] Hind paw licking or jumping were regarded as a sign to avoid heat nociception.
as §3

[2] = test system: inflammatory pain and neuropathic pain; settings: cited from earlier work
Nav1.7 = settings: cited from earlier work; for potency on Nav1.7 (literature): ref [14],[15]
Source text: Chronic pain is one of the most difficult clinical problems. As Nav1.7 is considered one of the most attractive targets for relieving chronic pain, scientist have paid a lot of effort to look for a selective inhibitor of Nav1.7. Several small molecules with selectivity on Nav1.7 are currently undergoing clinical development, including PF-05089771 (Pfizer, New York, NY, USA) and CNV1014802 (Convergence Pharmaceuticals, London , UK). Compared to small molecules, peptide toxins have better subtype selectivity due to their larger pharmacophore. Spider venoms are a rich source of ion ch ... || Many peptide toxins, which alter gating properties of VGSCs, have been identified to trap the DIIS3-S4 linker of sodium channels. However, the molecular mechanisms of inhibition of sodium currents by peptide toxins are greatly divergent. […] Pro ...

[3] = test system: other sodium channel subtypes; settings: literature statement, no reference given; cited from earlier work
[4] = test system: C-fiber compound action potential; parameters: method as in PMID 28045073; settings: desheathed cutaneous nerves; ref [27]; cited from earlier work

CN1CC[C@]23c4c5ccc(O)c4O[C@H]2[C@@H](O)C=C[C@H]3[C@H]1C5 [morphine, reference compound]
paw licking time, early phase ([1]; control 145.5 s): 35.3 s
paw licking time, late phase ([1]; control 414.5 s): 265 s
hot plate latency (hot plate test in mice; 30 min): 24.8
hot plate latency (hot plate test in mice; 60 min): 12.2 s

HWTX-IV
relief of acute inflammatory and chronic neuropathic pain ([2]; ref [28]): efficiently eased the acute inflammatory pain and chronic neuropathic pain
potency on Nav1.7 (literature) (Nav1.7): very potent Nav1.7 blockers
effect on channel gating (HWTX-IV, literature) (Nav1.7; ref [25]): without affecting activation or inactivation of channels
activity on other sodium channel subtypes [3]: also show activity on other sodium channel subtypes

ProTx-II
analgesic effect on severe pain ([2]; ref [27]): exerted a strong analgesic effect on severe pain
C-fiber compound action potential [4]: completely blocked the C-fiber compound action potential
potency on Nav1.7 (literature) (Nav1.7): very potent Nav1.7 blockers
effect on channel gating (ProTx-II, literature) (Nav1.7; ref [26]): modified the voltage dependence of VGSC inactivation
activity on other sodium channel subtypes [3]: also show activity on other sodium channel subtypes
